Experimental data as given in patent US20230122540A1, “SYSTEMS AND METHODS TO TRACK THE EVOLUTION OF SINGLE CELLS” (Genentech, Inc., priority 2020, published 2023).

Legend:
Assay type in all cases: cell-based, human
ATF4, CHOP, GADD34 = experiment: qRT-PCR of pro-death genes downstream of ER stress; conditions: PC9 and NCI-H1975 cells, day three
Experimental: RNA extraction and qRT-PCR: RNA was extracted using Qiagen RNeasy Plus kit following manufacturer's instruction. RNA was reverse transcribed using High-Capacity cDNA Reverse Transcription Kit (Thermo Fisher Scientific Cat. No. 4368814). qPCRs were performed using TaqMan™ Fast Advanced Master Mix (Thermo Fisher Scientific Cat. No. 4444557) on ABI QuantStudio 7 Flex Real-Time PCR Systems. HPRT1 was used as the internal control to quantify relative gene expression levels. Taqman probes were obtained from Thermo Fisher Scientific (Cat. No. 431182, 4448490). These probes were used in the study: ATF4 Hs00909569_g1, DDIT3/CHOP Hs00358796_g1, PPP1R15A/GADD34 Hs00169585_m1, SLC7A5 Hs01001183_m1, ETV4 Hs00385910_m1, SPRY4 Hs00540086_m1, DUSP6 Hs04329643_s1, HPRT1 Hs02800695_m1.

PC9 cells = experiment: Caspase-Glo 3/7 cell death assay, EGFRi+CCT020312; conditions: Caspase-Glo 3/7, 24 h post-treatment
Experimental: Cell viability and cell death quantification: For experiments shown in FIGS. 24C, 27D, the indicated cells were seeded at desired densities in replicates in 24-well plates and allowed to attach overnight. The following day cells were treated with the indicated compounds. Media containing the appropriate compounds was replenished every 48 hours. At each media change, cell viabilities were quantified using CellTiter-Glo Luminescent Cell Viability Assay (Promega, G7572). For experiments shown in FIG. 191 and FIG. 29D, PC9 cells were seeded in replicates in 96-well plates and allowed to attach overnight. The following day cells were treated with the indicated compounds or compound combinations at the indicated concentrations. Induction of cell death was quantified 24 h post-treatment using Caspase-Glo 3/7 Assay System (Promega, G8093) and cell survival were measured 72 h post-treatment using CellTiter-Glo Luminescent Cell Viability Assay (Promega, G7572). CCT020312 was obtained from EMD Millipore (324879).

NCI-H1975 cells = experiment: Clonogenic / CellTiter-Glo assay with allosteric degraders; conditions: compared to osimertinib
Experimental: Clonogenic assay: Cells were seeded at desired densities in two to three replicates in 6-well plates and allowed to attach overnight. The following day cells were treated with the indicated compounds. Media containing the appropriate compounds was replenished every 48-72 hours. At the end of the assay, the cells were washed once with PBS, fixed and stained with crystal violet solution (Sigma Aldrich, HT90132) for 20 minutes, washed with water, and allowed to dry before scanning. For experiments shown in FIG. 18E erlotinib concentration were determined to match the cell viability effect to 1 μM GNE-069 in each cell line, so that 1 μM erlotinib was applied to PC-9 and HCC2935, and 100 nM erlotinib was applied to HCC4006 and HCC827. […]
Cell viability and cell death quantification: For experiments shown in FIGS. 24C, 27D, the indicated cells were seeded at desired densities in replicates in 24-well plates and allowed to attach overnight. […] At each media change, cell viabilities were quantified using CellTiter-Glo Luminescent Cell Viability Assay (Promega, G7572). […] Induction of cell death was quantified 24 h post-treatment using Caspase-Glo 3/7 Assay System (Promega, G8093) and cell survival were measured 72 h post-treatment using CellTiter-Glo Luminescent Cell Viability Assay (Promega, G7572). […]

## CCN(CC)CCC(=O)N1N=C(c2c(-c3ccccc3)c3cc(Br)ccc3[nH]c2=O)CC1c1ccc(Br)cc1 (stereo not drawn) [CCT020312]
ATF4, CHOP, GADD34
  induction of ISR genes in combination with erlotinib or osimertinib: further boosted induction of ISR genes by erlotinib and osimertinib
PC9 cells
  cell death induction in combination with erlotinib or osimertinib: enhanced cell death induction

## O=C(Nc1nccs1)C(c1cc(F)ccc1O)N1Cc2ccccc2C1=O (stereo not drawn) [EAI-045]
NCI-H1975 cells
  single agent anti-growth activity: very modest single agent activity
